In brackets after ≈: the same amount, converted by molar mass. Read-outs that look alike come from different tables or passages of the source.
Columns and labels:
S. aureus = assay: MIC against S. aureus strains; type: cell-based
[1] = system: S. haemolyticus ATCC 29970; assay: MIC against S. haemolyticus; type: cell-based; details: Staphylococcus haemolyticus, ATCC29970
E. faecium = assay: MIC against E. faecium strains; type: cell-based
K. pneumoniae ATCC700603 = assay: MIC against K. pneumoniae; type: cell-based; details: Klebsiella pneumoniae; K. pneumoniae ATCC700603; read-out: MIC
A. baumanii ATCC17961 = assay: MIC against A. baumanii; type: cell-based; details: Acinetobacter baumannii; A. baumanii ATCC17961; read-out: MIC
P. aeruginosa ATCC27853 = assay: MIC against P. aeruginosa; type: cell-based; details: Pseudomonas aeruginosa; P. aeruginosa ATCC27853; read-out: MIC
E. aerogenes ATCC35029 = assay: MIC against E. aerogenes; type: cell-based; details: Klebsiella aerogenes; E. aerogenes ATCC35029; read-out: MIC
E. coli ATCC25922 = assay: MIC against E. coli; type: cell-based; details: Escherichia coli; E. coli ATCC25922; read-out: MIC
C. difficile ATCC 43255 [2] = assay: Minimal-bactericidal concentration (MBC); type: cell-based, Clostridioides difficile; details: MBC/MIC≤4 indicates bactericidal
[3] = system: Corynebacterium spp. HM-784; details: cited from earlier work
[4] = system: Lactobacillus reuteri HM-102; details: cited from earlier work
[5] = system: Lactobacillus gasseri HM-644; details: cited from earlier work
C. difficile ATCC 43255 [6] = assay: Determination of minimal-inhibitory concentrations (microdilution), C. difficile ATCC 43255; type: cell-based, Clostridioides difficile; details: Clostridioides difficile
THP-1 cells = assay: Lactate dehydrogenase (LDH) cytotoxicity assay; type: cell-based, human; details: Homo sapiens
C. difficile ATCC 43255 [7] = details: cited from earlier work
[8] = system: Bacteroides fragilis HM-709; details: cited from earlier work
[9] = system: Fusobacterium nucleatum HM-992; details: cited from earlier work
Veillonella sp. HM-49 = details: cited from earlier work
Eubacterium sp. HM-178 = details: cited from earlier work
[10] = Enterococcus faecium, read-out: MIC
[11] = ATCC43255, 24 h, C. difficile ATCC 43255, 24 h, read-out: MIC (μg/mL) 24 h
[12] = ATCC43255, Table 1, strain ATCC 43255, read-out: MIC C. difficile
[13] = Staphylococcus aureus, ATCC29213, 24 h, S. aureus ATCC 29213, 24 h, read-out: MIC (μg/mL) 24 h
[14] = C. difficile ATCC 43255, earlier publication
[15] = Staphylococcus aureus, S. aureus VRS1, read-out: MIC
[16] = S. haemolyticus ATCC 29970, read-out: MIC
[17] = THP-1, 24 h, read-out: LDH (IC50)

| SMILES | MIC (E. faecium; E. faecium 106 (Van R)) [µg/mL] | MIC (E. faecium; [10]) [µg/mL] | MIC (K. pneumoniae ATCC700603) [µg/mL] | MIC (A. baumanii ATCC17961) [µg/mL] | MIC (P. aeruginosa ATCC27853) [µg/mL] | MIC (E. aerogenes ATCC35029) [µg/mL] | MIC (E. coli ATCC25922) [µg/mL] | bactericidal or bacteriostatic (C. difficile ATCC 43255 [2]) | MIC [3] [µg/mL] | MIC [4] [µg/mL] | MIC [5] [µg/mL] | MIC (C. difficile ATCC 43255 [6]; [11]) [µg/mL] | MIC (C. difficile ATCC 43255 [6]; [12]) [µg/mL] | MIC (S. aureus; [13]) [µg/mL] | MIC (C. difficile ATCC 43255 [7]; C. difficile ATCC43255) [µg/mL] | MIC (C. difficile ATCC 43255 [7]; strain ATCC43255) [µg/mL] | MIC [8] [µg/mL] | MIC [9] [µg/mL] | MIC (Veillonella sp. HM-49) [µg/mL] | MIC (Eubacterium sp. HM-178) [µg/mL] | further results |
| --- | --- | --- | --- | --- | --- | --- | --- | --- | --- | --- | --- | --- | --- | --- | --- | --- | --- | --- | --- | --- | --- |
| Cc1ncc([N+](=O)[O-])n1CCO [MTZ, metronidazole] | >16 | > 16 | > 128 | > 128 | > 128 | > 128 | > 128 | bactericidal | >32 | >32 | >32 | – | – | – | – | – | – | – | – | – | MIC (S. aureus; S. aureus VRS2): >256 µg/mL; MIC (S. aureus; Staphylococcus aureus): > 256 µg/mL; MIC (S. aureus; Staphylococcus aureus, ATCC27660): > 256 µg/mL; MIC (S. aureus; Staphylococcus aureus, ATCC29213): > 256 µg/mL; MIC [1]: > 256 µg/mL; MIC (E. faecium; Enterococcus faecium, NCTC7171, E. faecium NCTC 7171, read-out: MIC): > 128 µg/mL |
| FC(F)(F)c1ccc(Oc2ccc(-c3noc(-c4ccc5[nH]ccc5c4)n3)cc2)cc1 [Compound 1] | – | – | – | – | – | – | – | – | 2 (≈ 4.75 µM) | >128 | >128 | 2 (≈ 4.75 µM) | 4 (≈ 9.49 µM) | 4 (≈ 9.49 µM) | 2 (≈ 4.75 µM) | 2 (≈ 4.75 µM) | 4 (≈ 9.49 µM) | 1 (≈ 2.37 µM) | >128 | 2 (≈ 4.75 µM) | IC50 (THP-1 cells; THP-1 cells, 24 h, read-out: LDH (IC50)): 69 ± 6 µg/mL (≈ 164 µM); IC50 (THP-1 cells; THP-1 cells, read-out: toxicity IC50 (LDH assay)): > 50 µg/mL; MIC (C. difficile ATCC 43255 [7]; [14]): 4 µg/mL (≈ 9.49 µM) |
| O=[N+]([O-])c1cnc(-c2nc(-c3ccc(OC4CCCC4)cc3)no2)[nH]1 [Compound 57, 3-(4-(Cyclopentyloxy)phenyl)-5-(4-nitro-1H-imidazol-2-yl)-1,2,4-oxadiazole] | 128 (≈ 375 µM) | 128 (≈ 375 µM) | > 128 | > 128 | > 128 | > 128 | > 128 | bactericidal | – | – | – | 0.125 (≈ 0.366 µM) | 0.25 (≈ 0.732 µM) | – | – | – | – | – | – | – | MIC (C. difficile ATCC 43255 [6]; ATCC43255, C. difficile ATCC43255, read-out: ATCC43255 MIC): 0.25 µg/mL (≈ 0.732 µM); MIC (C. difficile ATCC 43255 [6]; ATCC43255, C. difficile ATCC43255, read-out: MIC): 0.25 µg/mL (≈ 0.732 µM); MIC (C. difficile ATCC 43255 [6]; ATCC43255, strain ATCC43255, read-out: MIC): 0.25 µg/mL (≈ 0.732 µM); MIC (S. aureus; [15]): 64 µg/mL (≈ 188 µM); MIC (S. aureus; Staphylococcus aureus, S. aureus VRS2, read-out: MIC): 32 µg/mL (≈ 93.8 µM); MIC [1, 16]: 32 µg/mL (≈ 93.8 µM); IC50 (THP-1 cells; [17]): > 128 µg/mL; IC50 (THP-1 cells; THP-1, read-out: toxicity IC50 (LDH assay)): > 50 µg/mL |
| Oc1ccc(-c2nc(-c3ccc(OC4CCCC4)cc3)no2)cc1 [Compound 2] | – | – | – | – | – | – | – | – | 0.5 (≈ 1.55 µM) | >128 | >128 | 2 (≈ 6.2 µM) | 2 (≈ 6.2 µM) | 2 (≈ 6.2 µM) | 2 (≈ 6.2 µM) | 2 (≈ 6.2 µM) | 2 (≈ 6.2 µM) | 2 (≈ 6.2 µM) | >128 | 4 (≈ 12.4 µM) | IC50 (THP-1 cells; [17]): 18 ± 1 µg/mL (≈ 55.8 µM); MIC (C. difficile ATCC 43255 [7]; [14]): 2 µg/mL (≈ 6.2 µM) |
| CCc1c(Cl)c(O)c(Cl)c(O)c1C(=O)O[C@H]1[C@H](O)[C@H](OC)[C@H](OC/C2=C\C=C\C[C@H](O)/C(C)=C/[C@H](CC)[C@@H](O[C@@H]3OC(C)(C)[C@@H](OC(=O)C(C)C)[C@H](O)[C@@H]3O)/C(C)=C/C(C)=C/C[C@@H]([C@@H](C)O)OC2=O)O[C@@H]1C [FDX, fidaxomicin] | >16 | > 16 | > 128 | > 128 | > 128 | > 128 | > 128 | bactericidal | <0.06 | >32 | 2 (≈ 1.89 µM) | – | – | – | 0.06 (≈ 0.0567 µM) | 0.06 (≈ 0.0567 µM) | >32 | <0.06 | 8 (≈ 7.56 µM) | 16 (≈ 15.1 µM) | MIC (S. aureus; [15]): 64 µg/mL (≈ 60.5 µM); MIC [1, 16]: 16 µg/mL (≈ 15.1 µM) |

From US20260125371A1, “METHOD FOR INHIBITING CLOSTRIDIOIDES DIFFICILE SPORE GERMINATION” (UNIVERSITY OF NOTRE DAME DU LAC, priority 2022, published 2026)
